From PubChem BioAssay AID192 (DTP/NCI, 2004)
“And” between values parts separate entries of the source, which are not always exact repeats. Identical values can stand only once. Toxic doses and inconclusive results are not listed.

System: BDF1 mice, B16 melanoma ip, median survival T/C
Assay: NCI In Vivo Anticancer Drug Screen. Data for tumor model B16 Melanoma (intraperitoneal) in B6D2F1 (BDF1) mice
Conditions: endpoint: median survival time, higher = longer survival
Outline: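 Survival or tumor size is measured after treatment of tumor-bearing mice and normalised to the vehicle-treated control group.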

[1] = dose: 12.5 mg/kg/injection, schedule: Q01DX009 (ip), vehicle: saline with Tween-80
[2] = dose: 25.0 mg/kg/injection, schedule: Q01DX009 (ip), vehicle: saline with Tween-80
[3] = dose: 50.0 mg/kg/injection, schedule: Q01DX009 (ip), vehicle: saline with Tween-80
[4] = dose: 25.0 mg/kg/injection, schedule: Q01DX009 (ip), vehicle: Klucel (hydroxypropylcellulose) (HPC)
[5] = dose: 50.0 mg/kg/injection, schedule: Q01DX009 (ip), vehicle: Klucel (hydroxypropylcellulose) (HPC)
[6] = dose: 100.0 mg/kg/injection, schedule: Q04DX003 (ip), vehicle: Klucel (hydroxypropylcellulose) (HPC)
[7] = dose: 200.0 mg/kg/injection, schedule: Q04DX003 (ip), vehicle: Klucel (hydroxypropylcellulose) (HPC)
[8] = dose: 100.0 mg/kg/injection, schedule: Q01DX009 (ip), vehicle: saline with Tween-80
[9] = dose: 200.0 mg/kg/injection, schedule: Q01DX009 (ip), vehicle: saline with Tween-80
[10] = dose: 25.0 mg/kg/injection, schedule: Q04DX003 (ip), vehicle: other
[11] = dose: 50.0 mg/kg/injection, schedule: Q04DX003 (ip), vehicle: other
[12] = dose: 100.0 mg/kg/injection, schedule: Q04DX003 (ip), vehicle: other

For `O=C1CCC(c2ccccc2)=NN1`, the T/C (dose: 6.25 mg/kg/injection, schedule: Q01DX009 (ip), vehicle: saline with Tween-80) was 102 % of control, the T/C [1] was 102 % of control and the T/C [2] was 102 % of control. For the same compound, the T/C [3] was 89 % of control and 94 % of control.

With `O=C1CCCC(=O)C1C(C[N+](=O)[O-])c1ccccc1` (stereo unspecified) the T/C (dose: 12.5 mg/kg/injection, schedule: Q01DX009 (ip), vehicle: Klucel (hydroxypropylcellulose) (HPC)) was 86 % of control, the T/C [4] was 94 % of control and the T/C [5] was 107 % of control. For the same compound, the T/C (dose: 100.0 mg/kg/injection, schedule: Q01DX009 (ip), vehicle: Klucel (hydroxypropylcellulose) (HPC)) was 107 % of control.

For `CCOC1=C(Br)C=CN(S(=O)(=O)c2ccc(C)cc2)c2ccc(OC)cc21`, the T/C [6] was 96 % of control, the T/C [7] was 90 % of control and the T/C (dose: 400.0 mg/kg/injection, schedule: Q04DX003 (ip), vehicle: Klucel (hydroxypropylcellulose) (HPC)) was 91 % of control.

`Cn1ccc(=Nc2ccc(NC(=O)c3ccc(N=c4ccn(C)c5ccc([N+](=O)[O-])cc45)cc3[N+](=O)[O-])cc2)cc1` was tested, and the T/C [1] was 96 % of control, the T/C [2] was 97 % of control and the T/C [3] was 97 % of control. For the same compound, the T/C [8] was 105 % of control, the T/C [9] was 97 % of control and the T/C (dose: 400.0 mg/kg/injection, schedule: Q01DX009 (ip), vehicle: saline with Tween-80) was 91 % of control.

In the case of `C=CCC(CC)C(=O)Cl` (stereo unspecified), the T/C (dose: 12.5 mg/kg/injection, schedule: Q04DX003 (ip), vehicle: other) was 117 % of control, the T/C [10] was 114 % of control and the T/C [11] was 96 % of control. The T/C [12] was 88 % of control.

With `FC(F)(F)c1ccc2c(c1)N(CCCN1CC[N+]3(CCOCC3)CC1)c1ccccc1S2` the T/C (dose: 0.5 mg/kg/injection, schedule: Q01DX009 (ip), vehicle: saline) was 105 % of control, the T/C (dose: 1.0 mg/kg/injection, schedule: Q01DX009 (ip), vehicle: saline) was 94 % of control and 102 % of control and the T/C (dose: 2.0 mg/kg/injection, schedule: Q01DX009 (ip), vehicle: saline) was 100 % of control and 105 % of control. The T/C (dose: 4.0 mg/kg/injection, schedule: Q01DX009 (ip), vehicle: saline) was 94 % of control.

With `C=C1[C@@H](O)[C@]2(O)OC[C@@]34[C@H]1[C@@H](OC(=O)C(C)CC)C(=O)O[C@@H]3C[C@H]1C(C)=CC(=O)[C@@H](O)[C@]1(C)[C@@H]24` (stereo partly specified) the T/C (dose: 0.5 mg/kg/injection, schedule: Q01DX009 (ip), vehicle: saline with Tween-80) was 116 % of control and the T/C (dose: 1.0 mg/kg/injection, schedule: Q01DX009 (ip), vehicle: saline with Tween-80) was 118 % of control.

In the case of `Cc1ccc2cc3c(ccc4ccccc43)c3c2c1CC3`, the T/C (dose: 50.0 mg/kg/injection, schedule: Q01DX009 (ip), vehicle: saline) was 124 % of control, the T/C [8] was 120 % of control and the T/C (dose: 100.0 mg/kg/injection, schedule: Q04DX003 (ip), vehicle: saline with Tween-80) was 110 % of control. For the same compound, the T/C [9] was 114 % of control, the T/C (dose: 200.0 mg/kg/injection, schedule: Q04DX003 (ip), vehicle: saline with Tween-80) was 110 % of control and the T/C (dose: 400.0 mg/kg/injection, schedule: Q04DX003 (ip), vehicle: saline with Tween-80) was 115 % of control.

`NC(c1ccccc1)C(N)c1ccccc1` (stereo unspecified) was tested, and the T/C [10] was 97 % of control, the T/C [11] was 97 % of control and the T/C [12] was 86 % of control.

For `O=C(Nc1ccccc1C(F)(F)F)c1ccc(C(=O)Nc2ccccc2C(F)(F)F)cc1`, the T/C (dose: 8.0 mg/kg/injection, schedule: Q01DX009 (ip), vehicle: saline with Tween-80) was 88 % of control, the T/C (dose: 12.0 mg/kg/injection, schedule: Q01DX009 (ip), vehicle: saline with Tween-80) was 90 % of control and the T/C [1] was 212 % of control. The T/C (dose: 18.0 mg/kg/injection, schedule: Q01DX009 (ip), vehicle: saline with Tween-80) was 88 % of control, the T/C [2] was 171 % of control and the T/C [3] was 156 % of control.

For `Cc1c(C)c([N+](=O)[O-])c(Br)c(C)c1[N+](=O)[O-]`, the T/C [6] was 91 % of control and the T/C [7] was 98 % of control.

For `COc1cc(O)c2c(c1)C(=O)c1cc3c(c(O)c1C2=O)C(O)C(OC)C(C)(O)C3=O` (stereo unspecified), the T/C [4] was 95 % of control and the T/C [5] was 88 % of control.
